Results on one molecule are retold here after US9023859B2, “Composition and method for treating or preventing skeletal muscle fibrosis” (State of Israel, Ministry of Agriculture, Agricultural …, priority 2007, dated 2015).

Experiment [1] deals with Mdx mice. The experiment can be described thus: Collagen content (Sirius red) and collagen α1(I) gene expression (in situ hybridization) in quadriceps and tibialis muscles. The conditions noted are these: I.P. 3 μg/mouse every other day, 4 weeks from 5 weeks of age. The experiment is classed as in vivo. Here is the method: Mdx mice were treated either with halofuginone by I.P. injection every other day (3 μg/mouse) starting at 5 weeks of age for 4 weeks, or with saline vehicle. C57B mice were used as controls. At the end of the 4 week period, tibialis anterior (fast) and quadriceps (slow) muscles were removed for evaluation of fibrosis by Sirius red staining for collagen content, and by in situ hybridization of collagen α1(I) gene expression.

Experiment [2] has as its system Mdx mice. Briefly: Effect on fibrosis (collagen by Sirius red, image analysis) in diaphragm, gastrochnemius and tibialis muscles. The experiment is classed as in vivo. The settings on record: I.P. 5 μg/mouse every other day; for reduction of collagen levels: diaphragm; for reduction of collagen content: gastrochnemius. Here is the method:
Halofuginone was administered by I.P injection to mdx mice (n=7) from 3 weeks of age every other day at a concentration of 5 μg/mouse. The wild type (C57/BL) and mdx mice without halofuginone served as controls. At the age of 7 and 11 weeks the mice were sacrificed and the diaphragm, gastrochnemius and the tibialis were fixed for histology and samples were frozen for further analysis. Sections were stained for collagen by Sirius red and with methyl green as a counter stain. Image analysis using the Image Pro software was performed for statistical evaluation of the effect of halofuginone on collagen content. For the image analysis, images were taken from 3 animals/group and 4 replicates from each animal/tissue. The results are the ratio of red (R) to green color (G).

Experiment [3] concerns Mdx mice. The experiment can be described thus: Effect on muscle regeneration (diaphragm central nuclei counting). In kind it is in vivo, mouse. The settings on record: 5 μg or 7.5 μg for 1 or 2 months from 3 weeks of age; dose-dependent. Here is the method: Mdx mice were treated with halofuginone 5 μg or 7.5 μg for 1 or 2 months starting at age of 3 weeks. The untreated mdx mice served as controls. At the end of the experiment, the diaphragms were taken for hematoxyline & eosin staining before central nuclei counting. The results are the mean±SE of 20 photos taken from 3 different mice. Each photo contained approximately 120 fibers

Experiment [4] concerns myostatin gene expression. The experiment can be described thus: Myostatin gene expression in fibrotic liver (preliminary experiments). In kind it is in vivo.

With `O=C(CC1NCCC[C@H]1O)Cn1cnc2cc(Br)c(Cl)cc2c1=O` (stereo in doubt) [halofuginone, 7-bromo-6-chloro-3-[3-(3-hydroxy-2-piperidinyl)-2-oxopropyl]-4(3H)-quinazolinone], in the experiment on Mdx mice [1] (Sirius red), the “increase in amount of collagen fibers in mdx muscles” value is reported as “almost completely prevented”. Also, in the experiment with Mdx mice [1] (in situ hybridization), the “increase in expression of collagen α1(I) gene in mdx muscles” value is reported as “almost completely prevented”. The results for the “reduction of collagen levels” value in the experiment with Mdx mice [2] (7 weeks of age (4 weeks of treatment)) and with Mdx mice [2] (11 weeks of age (8 weeks of treatment)) were 25% and 53%, respectively. For the same molecule, the “reduction of collagen content” value is recorded as 25% in the experiment on Mdx mice [2] (7 weeks of age) and 33% with Mdx mice [2] (11 weeks of age). The “effect on collagen content” value in the experiment with Mdx mice [2] (tibialis muscle) is given as “No effect”. In addition, the “number of diaphragm central nuclei” value in the experiment on Mdx mice [3] is on record as “major reduction”. The myostatin gene expression entry in experiment [4] was “inhibition”.
